# Earlier results in patent publication US7393692B2, “SERS method for rapid pharmacokinetic analysis of drugs in saliva” (Real-Time Analyzers, Inc., priority 2004, dated 2008).
# Tests used:
# [1] = patient dependent
# [2] = biological target: T1, dihydropyrimidine dehydrogenase (DPD) (Homo sapiens, UniProt Q12882); details: patient with the normal amount of DPD
# T1 construct: endogenous in cells; host or cells: human individuals / hypothetical cancer patients (in vivo metabolism)
# T1 sequence (Q12882 4-1025): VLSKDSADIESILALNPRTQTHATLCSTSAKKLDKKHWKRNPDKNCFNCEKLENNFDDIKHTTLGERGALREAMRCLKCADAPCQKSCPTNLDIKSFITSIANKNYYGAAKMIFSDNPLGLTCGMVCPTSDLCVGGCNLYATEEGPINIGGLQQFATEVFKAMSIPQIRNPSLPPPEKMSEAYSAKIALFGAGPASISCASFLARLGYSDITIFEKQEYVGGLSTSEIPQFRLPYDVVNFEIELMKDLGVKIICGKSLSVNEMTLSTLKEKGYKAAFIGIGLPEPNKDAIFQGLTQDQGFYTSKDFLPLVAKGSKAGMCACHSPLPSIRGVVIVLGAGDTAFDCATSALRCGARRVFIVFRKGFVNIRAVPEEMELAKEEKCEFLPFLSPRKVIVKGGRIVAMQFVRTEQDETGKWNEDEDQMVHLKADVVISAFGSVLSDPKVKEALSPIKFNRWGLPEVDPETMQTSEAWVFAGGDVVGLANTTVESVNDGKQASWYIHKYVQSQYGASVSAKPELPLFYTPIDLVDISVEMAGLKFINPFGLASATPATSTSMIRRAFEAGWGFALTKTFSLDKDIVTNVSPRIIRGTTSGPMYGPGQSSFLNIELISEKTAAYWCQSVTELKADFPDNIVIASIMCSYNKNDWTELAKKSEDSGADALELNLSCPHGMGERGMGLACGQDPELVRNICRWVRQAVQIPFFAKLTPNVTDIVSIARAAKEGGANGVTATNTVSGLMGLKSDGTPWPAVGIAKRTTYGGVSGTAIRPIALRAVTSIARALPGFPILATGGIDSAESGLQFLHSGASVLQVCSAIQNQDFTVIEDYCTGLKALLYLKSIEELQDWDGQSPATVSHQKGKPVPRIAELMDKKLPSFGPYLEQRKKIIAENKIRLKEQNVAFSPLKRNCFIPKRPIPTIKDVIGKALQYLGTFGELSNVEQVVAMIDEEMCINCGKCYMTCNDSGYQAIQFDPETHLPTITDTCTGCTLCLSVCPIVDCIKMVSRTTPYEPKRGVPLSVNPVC
compound,measurement,setting,value
"O=c1[nH]cc(F)c(=O)[nH]1 [5-FU, 5-fluorouracil]","5-FU concentration in saliva, maximum",[1]; closely matches plasma,15 to 28 µg/mL
same,"5-FU concentration in saliva, three hour minimum",[1]; three hour minimum,0.1 µg/mL
same,5-FU metabolized to 5-FUH2 on average,[2],about 50%
